27 compounds from patent US10583112B2, “Benzo[b]furans as bromodomain inhibitors” (GlaxoSmithKline Intellectual Property (No. 2) Limited, priority 2016, dated 2020) can be followed below.

The target in this assay is T1, BRD4 BD2 (Homo sapiens, UniProt O60885, Y97A).
T1 construct: BRD4 (1-477) (Y97A) and (Y390A); made in house; host or cells: E. coli (pET15b vector)
Kind of assay: BRD4 BD2 TR-FRET competition assay. The class given is binding. The note with it: mean where stated, n given; read-out: pIC50 in the BRD4 BD2 TR-FRET assay (converted). The method, then: Bromodomain binding was assessed utilising a time resolved fluorescent resonance energy transfer (TR-FRET) competition assay. […] Europium chelate, conjugated to an anti-6*His antibody, was utilised as the donor fluorophore in the TR-FRET pair.
In order to generate a TR-FRET signal, donor fluorophore is excited by a laser at λ337 nm, which subsequently leads to emission at λ618 nm.
In order to monitor differential binding to either BD1 or BD2, single residue mutations of key tyrosines to alanine were made in the acetyl lysine binding pockets. To validate this approach, a double residue mutant tandem domain protein was produced for each of the BET family members.
Final purification was completed by Superdex 200 prep grade size exclusion column. Purified protein was stored at −80° C. in 20 mM HEPES pH 7.5 and 100 mM NaCl.
All assay components were dissolved in an assay buffer composing of 50 mM HEPES pH7.4, 50 mM NaCl, 5% Glycerol, 1 mM DTT and 1 mM CHAPS. […] An equal volume of 3 nM of anti-6*His Europium chelate was added to all wells, followed by a further 30 minute incubation at room temperature. TR-FRET was detected using a Perkin Elmer Multimode plate reader, by exciting the donor fluorophore at λ337 nm and subsequently, after a delay of 50 μsecs, measuring emission of the donor and acceptor fluorophores at λ615 nm and λ665 nm, respectively.
cA four parameter curve fit of the following form was then applied: y=a+((b−a)/(1+(10^x/10^c)^d) • Where ‘a’ is the minimum, ‘b’ is the Hill slope, ‘c’ is the pIC50 and ‘d’ is the maximum.

As to `CNC(=O)c1cc(C(=O)N[C@@H]2C[C@H]2CO)cc2c1O[C@@H](CF)[C@@H]2c1ccccc1` [Example 184, (2R,3R)-2-(fluoromethyl)-N^5-((1R,2R)-2-(hydroxymethyl)cyclopropyl)-N^7-methyl-3-phenyl-2,3-dihydrobenzofuran-5,7-dicarboxamide], the IC50 is 1 to 100 µM. With `CNC(=O)c1cc(C(=O)NC2CC2)cc2c1O[C@@H](CO)[C@@H]2c1ccccc1` [Example 104, (2R,3R)-N^5-cyclopropyl-2-(hydroxymethyl)-N^7-methyl-3-phenyl-2,3-dihydrobenzofuran-5,7-dicarboxamide] the figure was 1 to 100 µM; with `CNC(=O)c1cc(C(=O)NCCOC)cc2c1O[C@H](CO)[C@H]2c1cccc(OC)c1` (relative stereo) [Example 34, (2S*,3S*)-2-(Hydroxymethyl)-N^5-(2-methoxyethyl)-3-(3-methoxyphenyl)-N^7-methyl-2,3-dihydrobenzofuran-5,7-dicarboxamide], 1 to 100 µM. With `CNC(=O)c1cc(C(=O)N[C@@H]2C[C@H]2CCO)cc2c1O[C@@H](CF)[C@@H]2c1ccccc1` (mixture of isomers) [Example 196, (2R,3R)-2-(fluoromethyl)-N^5-((trans)-2-(2-hydroxyethyl)cyclopropyl)-N^7-methyl-3-phenyl-2,3-dihydrobenzofuran-5,7-dicarboxamide (diastereomeric mixture)] the figure was 1 to 100 µM.

In the case of `CNC(=O)c1cc(C(=O)NCC(C)O)cc2c1O[C@@H](C)[C@@H]2c1ccccc1` (stereo partly drawn) [Example 107, (2S,3R)-N^5-(2-hydroxypropyl)-N^7,2-dimethyl-3-phenyl-2,3-dihydrobenzofuran-5,7-dicarboxamide], the IC50 was 1 to 100 µM. `CNC(=O)c1cc(C(=O)Nc2nncn2C)cc2c1O[C@H](CF)[C@H]2c1ccccc1` [Example 172]: the IC50 was 1 to 100 µM. In the case of `CNC(=O)c1cc(C(=O)Nc2cn[nH]c2)cc2c1O[C@@H](CF)[C@@H]2c1ccccc1` [Example 186, (2R,3R)-2-(fluoromethyl)-N^7-methyl-3-phenyl-N^5-(1H-pyrazol-4-yl)-2,3-dihydrobenzofuran-5,7-dicarboxamide], the IC50 is 1 to 100 µM.

`CNC(=O)c1cc(C(=O)NCCn2cnnc2)cc2c1O[C@H](CF)[C@H]2c1ccccc1` (relative stereo) [Example 133, (Trans)-N^5-(2-(4H-1,2,4-triazol-4-yl)ethyl)-2-(fluoromethyl)-N^7-methyl-3-phenyl-2,3-dihydrobenzofuran-5,7-dicarboxamide]: the IC50 was 1 to 100 µM. Regarding `CNC(=O)c1cc(C(=O)NC)c2c(c1)[C@@H](c1ccccc1)[C@H](C)O2` [Example 100, (2S,3R)-N^5,N^7,2-trimethyl-3-phenyl-2,3-dihydrobenzofuran-5,7-dicarboxamide], the IC50 is 1 to 100 µM.

`CNC(=O)c1cc(C(=O)N[C@H]2[C@@H]3CN(C(C)=O)C[C@@H]32)cc2c1O[C@@H](C)[C@@H]2c1ccccc1` [Example 189, (2S,3R)-N^5-((1R,5S,6s)-3-acetyl-3-azabicyclo[3.1.0]hexan-6-yl)-N^7,2-dimethyl-3-phenyl-2,3-dihydrobenzofuran-5,7-dicarboxamide]: the IC50 was 1 to 100 µM. With `CCC(=O)N1C[C@@H]2[C@H](C1)[C@H]2NC(=O)c1cc(C(=O)NC)c2c(c1)[C@@H](c1ccccc1)[C@H](CF)O2` [Example 164, (2R,3R)-2-(Fluoromethyl)-N^7-methyl-3-phenyl-N^5-((1R,5S,6s)-3-propionyl-3-azabicyclo[3.1.0]hexan-6-yl)-2,3-dihydrobenzofuran-5,7-dicarboxamide] the figure was 1 to 100 µM; with `CNC(=O)c1cc(C(=O)N[C@H]2[C@@H]3COC[C@@H]32)cc2c1O[C@@H](C)[C@@H]2c1cccc(OCCOC)c1` [Example 201, (2S,3R)-N^5-((1R,5S,6r)-3-oxabicyclo[3.1.0]hexan-6-yl)-3-(3-(2-methoxyethoxy)phenyl)-N^7,2-dimethyl-2,3-dihydrobenzofuran-5,7-dicarboxamide], 1 to 100 µM; with `CNC(=O)c1cc(C(=O)Nc2nnn(C)n2)cc2c1O[C@H](CF)[C@H]2c1ccccc1` [Example 174, (2S,3S)-2-(Fluoromethyl)-N^7-methyl-N^5-(2-methyl-2H-tetrazol-5-yl)-3-phenyl-2,3-dihydrobenzofuran-5,7-dicarboxamide], 1 to 100 µM.

`CNC(=O)c1cc(C(=O)Nc2nncn2C)cc2c1O[C@@H](CF)[C@@H]2c1ccccc1` [Example 195, (2R,3R)-2-(fluoromethyl)-N^7-methyl-N^5-(4-methyl-4H-1,2,4-triazol-3-yl)-3-phenyl-2,3-dihydrobenzofuran-5,7-dicarboxamide]: the IC50 was 1 to 100 µM. As to `CNC(=O)c1cc(C(=O)NCCCC2CCNCC2(F)F)cc2c1O[C@@H](C)[C@@H]2c1ccccc1` (single isomer, unassigned) [Example 198, (2S,3R)-N5-(3-((S*)-3,3-difluoropiperidin-4-yl)propyl)-N7,2-dimethyl-3-phenyl-2,3-dihydrobenzofuran-5,7-dicarboxamide], the IC50 is 1 to 100 µM. `CNC(=O)c1cc(C(=O)N[C@H]2[C@@H]3COC[C@@H]32)cc2c1O[C@H](C)[C@H]2c1cccc(OCCO)c1` [Example 85, (2R,3S)—N^5-((1R,5S,6R)-3-Oxabicyclo[3.1.0]hexan-6-yl)-3-(3-(2-hydroxyethoxy)phenyl)-N^7,2-dimethyl-2,3-dihydrobenzofuran-5,7-dicarboxamide]: the IC50 was 1 to 100 µM. Turning to `CNC(=O)c1cc(C(=O)NCCc2cnn(C)c2)cc2c1O[C@@H](C)[C@@H]2c1ccccc1` [Example 188, (2S,3R)-N^7,2-dimethyl-N^5-(2-(1-methyl-1H-pyrazol-4-yl)ethyl)-3-phenyl-2,3-dihydrobenzofuran-5,7-dicarboxamide], the IC50 is 1 to 100 µM. For `CNC(=O)c1cc(C(=O)NC2C[C@H]2CCO)cc2c1O[C@H](CF)[C@H]2c1ccccc1` (stereo partly drawn) [Example 132, (2S,3S)-2-(Fluoromethyl)-N^5-((trans)-2-(2-hydroxyethyl)cyclopropyl)-N^7-methyl-3-phenyl-2,3-dihydrobenzofuran-5,7-dicarboxamide], the IC50 is 1 to 100 µM. Regarding `CNC(=O)c1cc(C(=O)NCC(C)O)cc2c1O[C@H](C)[C@H]2c1ccccc1` (stereo partly drawn) [Example 6, (2R,3S)—N^5-(2-Hydroxypropyl)-N^7,2-dimethyl-3-phenyl-2,3-dihydrobenzofuran-5,7-dicarboxamide], the IC50 was 1 to 100 µM. With `CNC(=O)c1cc(C(=O)Nc2cnn(C)c2)cc2c1O[C@@H](CF)[C@@H]2c1ccccc1` [Example 187, (2R,3R)-2-(fluoromethyl)-N^7-methyl-N^5-(1-methyl-1H-pyrazol-4-yl)-3-phenyl-2,3-dihydrobenzofuran-5,7-dicarboxamide], the IC50 is 1 to 100 µM.

For the compound `CNC(=O)c1cc(C(=O)Nc2cncnc2)cc2c1O[C@@H](CF)[C@@H]2c1ccccc1` [Example 200, (2R,3R)-2-(Fluoromethyl)-N^7-methyl-3-phenyl-N^5-(pyrimidin-5-yl)-2,3-dihydrobenzofuran-5,7-dicarboxamide], the IC50 is 1 to 100 µM. Regarding `CNC(=O)c1cc(C(=O)NCCc2cccnc2)cc2c1O[C@@H](C)[C@@H]2c1cccc(OCCO)c1` [Example 183, (2S,3R)-3-(3-(2-hydroxyethoxy)phenyl)-N^7,2-dimethyl-N^5-(2-(pyridin-3-yl)ethyl)-2,3-dihydrobenzofuran-5,7-dicarboxamide], the IC50 was 1 to 100 µM.

As for `CNC(=O)c1cc(C(=O)Nc2ccnnc2)cc2c1O[C@@H](CF)[C@@H]2c1ccccc1` [Example 193, (2R,3R)-2-(fluoromethyl)-N^7-methyl-3-phenyl-N^5-(pyridazin-4-yl)-2,3-dihydrobenzofuran-5,7-dicarboxamide], the IC50 is 1 to 100 µM. Take `CNC(=O)c1cc(C(=O)Nc2cn(C)nn2)cc2c1O[C@@H](CF)[C@@H]2c1ccccc1` [Example 194, (2R,3R)-2-(fluoromethyl)-N^7-methyl-N^5-(1-methyl-1H-1,2,3-triazol-4-yl)-3-phenyl-2,3-dihydrobenzofuran-5,7-dicarboxamide]: the IC50 is 1 to 100 µM. The same measure for `CNC(=O)c1cc(C(=O)NC2CC2)cc2c1O[C@@H](C)[C@@H]2c1ccccc1` [Example 102, (2S,3R)-N^5-cyclopropyl-N^7,2-dimethyl-3-phenyl-2,3-dihydrobenzofuran-5,7-dicarboxamide]: 1 to 100 µM. In the case of `CNC(=O)c1cc(C(=O)N[C@H]2[C@@H]3CN(C(C)=O)C[C@@H]32)cc2c1O[C@@H](CF)[C@@H]2c1ccccc1` [Example 190, (2R,3R)-N^5-((1R,5S,6s)-3-acetyl-3-azabicyclo[3.1.0]hexan-6-yl)-2-(fluoromethyl)-N^7-methyl-3-phenyl-2,3-dihydrobenzofuran-5,7-dicarboxamide], the IC50 is 1 to 100 µM. The same measure for `CNC(=O)c1cc(C(=O)NC2CC2)cc2c1O[C@H](C)[C@@H]2c1ccccc1` [Example 103, (2R,3R)-N^5-cyclopropyl-N^7,2-dimethyl-3-phenyl-2,3-dihydrobenzofuran-5,7-dicarboxamide]: 1 to 100 µM.
